{"source": "patent US4093714A", "about": "“9β-D-Arabinofuranosylpurine nucleotides and method of use” (ICN Pharmaceuticals, Inc., priority 1974, dated 1978)", "key": {"Vaccinia Virus": {"system": "Vaccinia Virus", "format": "cell-based", "conditions": "cell culture, three days, VR >0.5 definite, <0.5 slight antiviral activity"}, "[1]": {"system": "Type 2 Herpes Simplex Virus", "format": "cell-based", "conditions": "cell culture, three days, VR >0.5 definite, <0.5 slight antiviral activity"}, "[2]": {"system": "Type 1 Herpes Simplex Virus", "format": "cell-based", "conditions": "cell culture, three days, VR >0.5 definite, <0.5 slight antiviral activity"}, "[3]": {"system": "Herpes simplex, strain 123", "experiment": "Anti-herpes encephalitis activity in mice, intraperitoneal treatment", "conditions": "for Percent Survivor Number Increase: twice daily for 8 days from 4 hr post virus, 21 days; for Survivor Increase P: probability value (chi square analysis)"}, "[4]": {"conditions": "clinical testing as antiviral agent; cited from earlier work"}, "[5]": {"conditions": "cited from earlier work"}, "[6]": {"system": "spectrum of virus infections", "conditions": "cited from earlier work"}, "equine abortion virus": {"system": "equine abortion virus", "conditions": "for Infected, Treated Surv/Total: 21 days observation; for Toxicity Control Surv/Total: twice daily for four days; for Survival Increase p: Fisher's exact test; for Infected, Treated Mean Survival Time: animals dying on or before day 21; for Mean Surv. Increase p: t test"}, "[7]": {"conditions": "eventually to uric acid; cited from earlier work"}}, "note": "Like-named read-outs stand apart in the source and are kept apart here.", "data": [{"smiles": "O=c1c2ncn([C@@H]3O[C@H](COP(=O)(O)O)[C@@H](O)[C@@H]3O)c2ncn1O", "note": "[9-β-D-Arabinofuranosyl-N^1-hydroxyhypoxanthine-5'-phosphate]", "values": [{"measurement": "virus rating (VR)", "setting": "Vaccinia Virus", "result": "0.1-0.4"}, {"measurement": "virus rating (VR)", "setting": "[1]", "result": "0.0-0.6"}, {"measurement": "virus rating (VR)", "setting": "[2]", "result": "0.2-0.7"}]}, {"smiles": "Nc1ncnc2c1ncn2[C@@H]1O[C@H](CO)[C@@H](O)[C@@H]1O", "note": "[9-β-D-Arabinofuranosyladenine, 9-β-D-arabinofuranosyladenine]", "values": [{"measurement": "Percent Survivor Number Increase", "setting": "[3]; 62.5 mg/kg/day i.p.", "result": 0, "unit": "%"}, {"measurement": "Survivor Increase P", "setting": "[3]; 62.5 mg/kg/day i.p.", "result": "> 0.03"}, {"measurement": "Percent Survivor Number Increase", "setting": "[3]; 125 mg/kg/day i.p.", "result": 30, "unit": "%"}, {"measurement": "Survivor Increase P", "setting": "[3]; 125 mg/kg/day i.p.", "result": "< 0.05"}, {"measurement": "Percent Survivor Number Increase", "setting": "[3]; 250 mg/kg/day i.p.", "result": 40, "unit": "%"}, {"measurement": "Survivors/Total (Toxicity Controls)", "setting": "[3]; 250 mg/kg/day i.p., twice daily for 8 days, 21 days observation", "result": "5/5"}, {"measurement": "Survivor Increase P", "setting": "[3]; 250 mg/kg/day i.p.", "result": "< 0.05"}, {"measurement": "effectiveness of ara-A compared with ara-IMP", "setting": "[3]; i.p., Table II", "result": "less effective"}, {"measurement": "human toxic symptoms", "setting": "[4]", "result": "mild nausea, transient leukopenia and central nervous system involvement which causes illusions and hallucinations"}, {"measurement": "solubility (in words)", "setting": "[5]", "result": "low solubility"}, {"measurement": "reported antiviral effectiveness", "setting": "[6]", "result": "effective agent against a spectrum of virus infections"}, {"measurement": "Infected, Treated Surv/Total", "setting": "equine abortion virus; Expt. 1, 125 mg/kg/day i.p.", "result": "8/9"}, {"measurement": "Toxicity Control Surv/Total", "setting": "equine abortion virus; Expt. 1, 125 mg/kg/day i.p.", "result": "2/2"}, {"measurement": "Survival Increase p", "setting": "equine abortion virus; Expt. 1, 125 mg/kg/day i.p.", "result": "< 0.001"}, {"measurement": "Infected, Treated Mean Survival Time", "setting": "equine abortion virus; Expt. 1, 125 mg/kg/day i.p.", "result": 13, "unit": "days"}, {"measurement": "Infected, Treated Surv/Total", "setting": "equine abortion virus; Expt. 1, 250 mg/kg/day i.p.", "result": 0.8}, {"measurement": "Toxicity Control Surv/Total", "setting": "equine abortion virus; Expt. 1, 250 mg/kg/day i.p.", "result": "2/3"}, {"measurement": "Infected, Treated Mean Survival Time", "setting": "equine abortion virus; Expt. 1, 250 mg/kg/day i.p.", "result": 9.2, "unit": "days"}, {"measurement": "Mean Surv. Increase p", "setting": "equine abortion virus; Expt. 1, 250 mg/kg/day i.p.", "result": "< 0.001"}, {"measurement": "Infected, Treated Surv/Total", "setting": "equine abortion virus; Expt. 2, 62.5 mg/kg/day i.p.", "result": "10/10"}, {"measurement": "Survival Increase p", "setting": "equine abortion virus; Expt. 2, 62.5 mg/kg/day i.p.", "result": "< 0.001"}, {"measurement": "Infected, Treated Mean Survival Time", "setting": "equine abortion virus; Expt. 2, 62.5 mg/kg/day i.p.", "result": "> 21", "unit": "days"}, {"measurement": "Mean Surv. Increase p", "setting": "equine abortion virus; Expt. 2, 62.5 mg/kg/day i.p.", "result": "< 0.001"}, {"measurement": "Infected, Treated Surv/Total", "setting": "equine abortion virus; Expt. 2, 250 mg/kg/day i.p.", "result": "3/10"}, {"measurement": "Toxicity Control Surv/Total", "setting": "equine abortion virus; Expt. 2, 250 mg/kg/day i.p.", "result": "2/3"}, {"measurement": "Survival Increase p", "setting": "equine abortion virus; Expt. 2, 250 mg/kg/day i.p.", "result": 0.09}, {"measurement": "Infected, Treated Mean Survival Time", "setting": "equine abortion virus; Expt. 2, 250 mg/kg/day i.p.", "result": 12, "unit": "days"}, {"measurement": "Mean Surv. Increase p", "setting": "equine abortion virus; Expt. 2, 250 mg/kg/day i.p.", "result": "< 0.001"}]}, {"smiles": "O=c1[nH]cnc2c1ncn2[C@@H]1O[C@@H]2COP(=O)(O)O[C@H]2[C@@H]1O", "note": "[9-β-D-Arabinofuranosylhypoxanthine-3' ,5'-cyclic phosphate]", "values": [{"measurement": "virus rating (VR)", "setting": "Vaccinia Virus", "result": 0.7}, {"measurement": "virus rating (VR)", "setting": "[2]", "result": "0.7-1.1"}]}, {"smiles": "O=c1[nH]cnc2c1ncn2[C@@H]1O[C@H](CO)[C@@H](OP(=O)(O)O)[C@@H]1O", "note": "[9-β-D-Arabinofuranosylhypoxanthine-3'-phosphate]", "values": [{"measurement": "virus rating (VR)", "setting": "[2]", "result": 1.0}]}, {"smiles": "COP(=O)(O)OC[C@H]1O[C@@H](n2cnc3c(=O)[nH]cnc32)[C@@H](O)[C@@H]1O", "note": "[9-β-D-Arabinofuranosylhypoxanthine-5'-O-methylphosphate]", "values": [{"measurement": "virus rating (VR)", "setting": "Vaccinia Virus", "result": 0.4}, {"measurement": "virus rating (VR)", "setting": "[1]", "result": 0.0}, {"measurement": "virus rating (VR)", "setting": "[2]", "result": "0.4-0.7"}]}, {"smiles": "Nc1ncnc2c1ncn2[C@@H]1O[C@H](COP(=O)(O)O)[C@@H](O)[C@@H]1O", "note": "[9-β-D-arabinofuranosyladenine-5'-phosphate]", "values": [{"measurement": "metabolic degradation", "setting": "[7]", "result": "rapidly degraded in the metabolic system (eventually to uric acid)"}, {"measurement": "virus rating (VR)", "setting": "[2]", "result": 1.3}]}, {"smiles": "O=c1[nH]c(=O)n([C@H]2C[C@H](O)[C@@H](CO)O2)cc1I", "note": "[IDU, 5'-iodo-2'-deoxyuridine]", "values": [{"measurement": "maximum solubility", "setting": "[5]", "result": "about 0.1 weight percent"}, {"measurement": "solubility (in words)", "setting": "[5]", "result": "extremely low solubility"}]}]}
